Data on 1 compound can be found in US20190192699A1, “NUCLEAR IMAGING AND RADIOTHERAPEUTICS AGENTS TARGETING CARBONIC ANHYDRASE IX AND USES THEREOF” (THE JOHNS HOPKINS UNIVERSITY, priority 2016, published 2019).

Data set [1] deals with CAIX-expressing SK-RC-52 tumors. Kind of data set: PET/CT imaging of [Al18F]XYIMSR-04. The data set is classed as in vivo, mice. The note with it: 7.4 MBq (200 μCi) via tail vein. The method, then:
(§1) Cell Lines and Mouse Models. Animal experiments were performed in accordance with protocols approved by the Johns Hopkins Animal Care and Use Committee (ACUC). Six-week-old female NOD/SCID mice were purchased from the Animal Resource Core of the Sidney Kimmel Comprehensive Cancer Center of Johns Hopkins and were subcutaneously injected in the lower left flank or upper right flank with 1×10^6 SK-RC-52 cells in RPMI 1640 GlutaMAX™ media (Life Technologies, Frederick, Md.) supplemented with 1% fetal bovine serum (FBS). Mice were monitored for tumor size and used for SPECT/CT imaging when the size of the tumor reached 100 mm^3.
PET/CT imaging of [Al^18F]XYIMSR-04. Mice harboring subcutaneous SK-RC-52 tumors with the lower left flank were injected with 7.4 MBq (200 μCi) of [Al^18F]XYIMSR-04 in 250 μL of PBS (pH=7.0) intravenously (tail vein). Anesthesia was then induced with 3% isofluorane and maintained at 2% isoflurane. Physiologic temperature was maintained with an external light source while the mouse was on the gantry. […] Whole body 2-bed PET scan was performed using ARGUS small-animal PET/CT scanner (Sedecal, Madrid, Spain) at 250-700 keV energy window. PET acquisition times were: 5 min/bed (1 h) post-injection of [Al^18F]XYIMSR-04. PET images were co-registered with the corresponding 360-slice CT images. […]

For data set [2], the system named is SK-RC-52 xenografts. Kind of data set: Biodistribution of [Al18F]XYIMSR-04. The settings on record: 1 h post-injection. It counts as in vivo, mice. The method, then:
as §1
Biodistribution of [Al^18F]XYIMSR-04. Mice bearing SK-RC-52 xenografts within the lower left flank were injected intravenously with 740 kBq (20 μCi) of [Al^18F]XYIMSR-04 in 200 μL of PBS. At specific 1 hour time point mentioned in the paper, mice (n=5) were sacrificed by cervical dislocation and the blood was immediately collected by cardiac puncture. Heart, lungs, pancreas, spleen, fat, brain, muscle, small intestines, liver, bone, stomach, kidney, urinary bladder, and tumor were collected. Each organ was weighed and the tissue radioactivity was measured with an automated gamma counter (1282 Compugamma CS, Pharmacia/LKBNuclear, Inc., Mt. Waverly, Vic. Australia). The percentage of injected dose per gram of tissue (% ID/g) was calculated by comparison with samples of a standard dilution of the initial dose. All measurements were corrected for radioactive decay. Data were expressed as mean±standard deviation (SD). Prism software (GraphPAD, San Diego, Calif.) was used to determine statistical significance. Statistical significance was calculated using a paired t test. P-values […] were considered significant.

“And” between values parts separate entries of the source, which are not always exact repeats. Identical values can stand only once. “Also recorded” adds a separate entry of the source.

Take `CC(CCC(=O)N[C@@H](CC(=O)N[C@@H](CC(=O)N[C@@H](CCCCn1cc(CCCC(=O)Nc2nnc(S(N)(=O)=O)s2)nn1)C(=O)NCCOCCOCCNC(=O)CN1CCN2CCN(CC1)CC(=O)[O][Al]([18F])[O]C(=O)C2)C(=O)O)C(=O)O)(c1ccc(O)cc1)c1ccc(O)cc1` [[Al^18F]XYIMSR-04]: the “PET/CT tumor imaging finding” value in data set [1] was “radiotracer uptake in tumor at 1 h post-injection; also recorded: tumor visualization by 1 h post-injection”. In data set [2], the “Biodistribution: Bladder” value came to 20.12 ± 12.51 % ID/g, the “Biodistribution: Blood” value was 0.65 ± 0.11 % ID/g, the “Biodistribution: Bone” value came to 1.91 ± 1.39 % ID/g and the “Biodistribution: Brain” value is reported as 0.66 ± 0.04 % ID/g. Also, in data set [2], the “Biodistribution: Fat” value is 1.54 ± 0.25 % ID/g, the “Biodistribution: Heart” value was found to be 5.03 ± 0.51 % ID/g, the “Biodistribution: Kidney (kid)” value was 50.84 ± 2.65 % ID/g and the “Biodistribution: Liver” value stood at 5.55 ± 0.91 % ID/g. Moreover, in data set [2], the “Biodistribution: Lung” value is given as 34.07 ± 5.85 % ID/g, the “Biodistribution: Muscle (mm)” value worked out at 1.74 ± 0.58 % ID/g, the “Biodistribution: Pancreas” value came out at 3.47 ± 0.16 % ID/g and the “Biodistribution: Sm. intestine” value was determined as 9.59 ± 1.04 % ID/g. Also, in data set [2], the “Biodistribution: Spleen” value is given as 0.54 ± 0.18 % ID/g; the “Biodistribution: Stomach” value is listed as 21.62 ± 1.85 % ID/g; the “Biodistribution: Tumor” value is 14.40 % ID/g and 14.40 ± 2.18 % ID/g; the Tumor/Blood ratio was 22.1 and 22.1 ± 1.5. Moreover, in data set [2], the “Tumor/kid (kidney) ratio” value is 0.28 and 0.28 ± 0.03; the “Tumor/mm (muscle) ratio” value is 9.74 and 9.74 ± 2.9.
